Results taken from paper PMC10932284 (International Journal of Molecular Sciences, 2024).
Where two headings read alike, the source gives them in different places.

What was measured:
[1] = test system: M. tuberculosis strain susceptible to rifampicin and resistant to isoniazid; format: cell-based, Mycobacterium tuberculosis; settings: 28 days, 37 °C
[2] = test system: M. tuberculosis strain resistant to both rifampicin and isoniazid; format: cell-based, Mycobacterium tuberculosis; settings: for number of M. tuberculosis colonies/standard inoculum volume (0.2 mL): 28 days, 37 °C; for growth inhibition of mycobacteria (in words): both concentrations (1 and 2 µg/mL)
[3] = 1 µg/mL in Lowenstein Jensen medium
[4] = 2 µg/mL in Lowenstein Jensen medium

O=C1Nc2ccccc2S(=O)(=O)N1 [2a]
number of M. tuberculosis colonies/standard inoculum volume (0.2 mL) [1, 3]: 0 colonies
number of M. tuberculosis colonies/standard inoculum volume (0.2 mL) [1, 4]: 0 colonies
number of M. tuberculosis colonies/standard inoculum volume (0.2 mL) [2, 3]: 0 colonies
number of M. tuberculosis colonies/standard inoculum volume (0.2 mL) [2, 4]: 0 colonies
growth inhibition of mycobacteria (in words) [2]: inhibited

Cc1ccc2c(c1)S(=O)(=O)NC(=O)N2 [2c]
number of M. tuberculosis colonies/standard inoculum volume (0.2 mL) [1, 3]: 0 colonies
number of M. tuberculosis colonies/standard inoculum volume (0.2 mL) [1, 4]: 0 colonies
number of M. tuberculosis colonies/standard inoculum volume (0.2 mL) [2, 3]: 0 colonies
number of M. tuberculosis colonies/standard inoculum volume (0.2 mL) [2, 4]: 0 colonies
growth inhibition of mycobacteria (in words) [2]: inhibited

Cc1cc(C)c2c(c1)S(=O)(=O)NC(=O)N2 [2d]
number of M. tuberculosis colonies/standard inoculum volume (0.2 mL) [1, 3]: 0 colonies
number of M. tuberculosis colonies/standard inoculum volume (0.2 mL) [1, 4]: 0 colonies
number of M. tuberculosis colonies/standard inoculum volume (0.2 mL) [2, 3]: 0 colonies
number of M. tuberculosis colonies/standard inoculum volume (0.2 mL) [2, 4]: 0 colonies
growth inhibition of mycobacteria (in words) [2]: inhibited

O=C1Nc2ccc(F)cc2S(=O)(=O)N1 [2h]
number of M. tuberculosis colonies/standard inoculum volume (0.2 mL) [1, 3]: 0 colonies
number of M. tuberculosis colonies/standard inoculum volume (0.2 mL) [1, 4]: 0 colonies
number of M. tuberculosis colonies/standard inoculum volume (0.2 mL) [2, 3]: 0 colonies
number of M. tuberculosis colonies/standard inoculum volume (0.2 mL) [2, 4]: 0 colonies
growth inhibition of mycobacteria (in words) [2]: inhibited

O=C1Nc2ccc(O)cc2S(=O)(=O)N1 [2t]
number of M. tuberculosis colonies/standard inoculum volume (0.2 mL) [1, 4]: 0 colonies
number of M. tuberculosis colonies/standard inoculum volume (0.2 mL) [2, 3]: 0 colonies
number of M. tuberculosis colonies/standard inoculum volume (0.2 mL) [2, 4]: 0 colonies
growth inhibition of mycobacteria (in words) [2]: inhibited

CC(=O)Nc1nnc(S(N)(=O)=O)s1 [AAZ, acetazolamide, reference compound]
number of M. tuberculosis colonies/standard inoculum volume (0.2 mL) [1, 3]: 0 colonies
number of M. tuberculosis colonies/standard inoculum volume (0.2 mL) [1, 4]: 0 colonies
number of M. tuberculosis colonies/standard inoculum volume (0.2 mL) [2, 3]: 0 colonies
number of M. tuberculosis colonies/standard inoculum volume (0.2 mL) [2, 4]: 0 colonies

CC(=O)/N=c1/sc(S(N)(=O)=O)nn1C [MTZ, reference compound]
number of M. tuberculosis colonies/standard inoculum volume (0.2 mL) [1, 3]: 0 colonies
number of M. tuberculosis colonies/standard inoculum volume (0.2 mL) [1, 4]: 0 colonies
number of M. tuberculosis colonies/standard inoculum volume (0.2 mL) [2, 3]: 0 colonies
number of M. tuberculosis colonies/standard inoculum volume (0.2 mL) [2, 4]: 0 colonies
